Test results from patent US20110250613A1, “Arrayed Multiple Ubiquitin Binding Domains as Linkage-specific Polyubiquitin Affinity Reagents” (THE JOHNS HOPKINS UNIVERSITY, priority 2009, published 2011).
Several values for one entry are separate records, joined by “and”; a condition that tells them apart may be missing. Identical values can stand only once. Where no end group is shown, it is not given here. The star is where a group is joined. Fluorescein(5-Mal) = O=C1OC2(c3ccc(O)cc3Oc3cc(O)ccc32)c2ccc(N3C(=O)CC(*)C3=O)cc21

What was measured:
K63-Ub4 [1] = assay: Fluorescence anisotropy binding of fluorescent free UBA domains to K63-Ub4; settings: free UBA domains
Source text: (§1) Fluorescent Labeling. Ede1 UBA, hHR23A UBA1, Dsk2 UBA and Ddi1 UBA were produced as intein fusions and fluorescently labeled using expressed protein ligation as described in Scheibner et al., 2003. The dipeptide used for Ede1 labeling was Cys-Lys, with NHS-rhodamine (Pierce) coupled to the lysine amino group, and was a kind gift from Philip Cole (Johns Hopkins School of Medicine). MALDI mass spectroscopy confirmed the addition of the fluorescent dipeptide to the Ede1 UBA domain and that there was complete cleavage of the initiating methionine residue. hHR23A UBA1, Dsk2, and Ddi1 UBAs were labeled in a similar way, except that the dipeptide contained a fluorescein moiety instead of rhodamine. The fluorescein-labeled dipeptide was made as described in Scheibner et al., 2003. […]
(§2) Fluorescence Anisotropy Binding Assays. Fluorescence anisotropy measurements were performed as described (Sims and Cohen, 2009) using excitation and emission maxima of 492 nm/520 nm (fluorescein), 556 nm/569 nm (Alexa Fluor 546), or 555 nm/578 nm (rhodamine), in binding buffer at 25° C. The concentrations of the fluorescent proteins were calculated using published extinction coefficients (Invitrogen-Molecular Probes). polyUb concentrations were assessed from absorbance at 280 nm using the Ub extinction coefficient of 0.16 (mg per ml)^−1 cm^'1.49. […]

K48-Ub4 [2] = assay: Fluorescence anisotropy binding of fluorescent free UBA domains to K48-Ub4; settings: free fluorescent UBA domain
Source text: as §1, §2

K63-Ub4 and K48-Ub4 = assay: GST pull-down assay with 125I-labeled K63- or K48-Ub4; assay type: binding
Procedure: Pull-Down Assays. GST-UBA protein was added to 15 μl of glutathione-agarose and the beads were washed with binding buffer [25 mM phosphate pH 7.4, 150 mM NaCl, 10 mM β-mercaptoethanol, 1 mM EDTA, 0.05% (v/v) Brij35]. ^125I-labeled K63 or K48-Ub4 (1 μM) was then added in 100 μl of binding buffer plus 1 mg ml^−1 BSA, and the beads agitated gently for 20 min. at room temperature. The specific radioactivities of ^125I-labeled K63- and K48-Ub4 were normalized beforehand with unlabeled chains. The beads were then washed quickly 2 or 3 times with binding buffer. The bound chains were eluted with SDS-PAGE sample buffer and resolved by SDSPAGE. The Ub4 bands were excised from the gel and quantified with a gamma-counter. “Bound counts” in FIG. 12d and FIG. 15d is the radioactivity (cpm) for a particular band minus the counts in the corresponding gel slice in the negative-control lane.

K63-Ub4 [3] = target: T1, K63-Ub4 (Homo sapiens, UniProt P0CG47, K63R); assay: SPR of captured GST-UBA proteins with K63-Ub4; assay type: binding; settings: SPR (Table 4) versus fluorescence anisotropy (Table 5)
T1 construct: Ub and K48- and K63-linked diUb and tetraUb were made as described; made in house
Procedure: Surface Plasmon Resonance. SPR analyses was performed on a Biacore 3000 instrument at 25° C. in HBS-EP buffer (Biacore). Anti-GST antibody (Biacore) was immobilized by amine coupling on a Biacore CM5 chip. GST-UBA proteins were captured on a measurement surface at a density of 150-400 RU; an antibody-coupled surface served as the reference. Ubn chains were applied to the chip with a 5 μl/min flow rate and recorded the response; 50 mM glycine pH 1.8 or 15 mM NaOH was used to remove GST-UBA proteins and renew the surface. The data was fit with a single-site binding model as described in Wilkinson, 2004.

K63-Ub2 = target: T2, K63-Ub2 (Homo sapiens, UniProt P0CG47, K63R); assay: Fluorescence anisotropy binding of fluorescent tUIM peptides to K63-Ub2; settings: fluorescence anisotropy
T2 construct: Ub and K48- and K63-linked diUb and tetraUb were made as described; made in house
Source text: Fluorescent Labeling. Rap80 tUIM peptides were fluorescently-labeled on the sulfhydryl group of C121 (see FIG. 1). For longer Rap80 constructs, all cysteines except C121 were mutated to serine for site-specific labeling. Ataxin-3 and Vps27 UIM peptides were labeled on a single cysteine introduced at the C-terminus. Fluorescein-5-maleimide (Pierce) was coupled to cysteines following the manufacturer's instructions. After desalting through Sephadex G-25 resin, fluorescein-labeled tUIM peptides were separated from unlabeled peptides by anion-exchange chromatography (MonoQ column, GE Biosciences) by elution with a NaCl gradient in 50 mM Tris buffer, pH 7.9. The labeled peptides were essentially 100% pure by SDS-PAGE and Coomassie blue staining, and MALDI-TOF mass spectrometry confirmed the addition of a single fluorescein moiety. Fluorescence Anisotropy Binding Assays. Fluorescence anisotropy measurements were made using a Fluoromax 4 fluorometer in L format, thermostatted at 25° C. Excitation and emission monochromators were set at 492 nm and 520 nm, respectively. Slit widths were 3 nm for diUb-binding assays ([…]) or 6 nm for tetraUb-binding assays ([…]). Anisotropies were calculated by the instrument software, and the overall intensity of the fluorescence signal was monitored at each point with the polarizers oriented at the magic angle. All measurements were made in fluorescence buffer (25 mM Na phosphate [pH 7.4], 150 mM NaCl, 5 mM β-mercaptoethanol, 1 mM EDTA, and either 0.005% surfactant P20 (BIACORE) or 0.05% Brij35). Concentrations of the fluorescent proteins were calculated using the fluorescein extinction coefficient at 494 nm, 68000 M^-1 cm^-1. (poly)Ub concentrations were assessed by absorbance at 280 nm using the extinction coefficient 0.16 (mg/ml)^-1 cm^-1 ([…] and Raasi, 2005). Fluorescence anisotropy data were fit with a single-site binding model as described (Wilkinson, 2004). The equilibrium constants for wild-type Vps27 peptide binding to K63 and K48 Ub4 were determined by competition with the fluorescent Vps27 7aa linker peptide as described (Wilkinson, 2004).

K48-Ub2 = target: T3, K48-Ub2 (Homo sapiens, UniProt P0CG47, K48R); assay: Fluorescence anisotropy binding of fluorescent tUIM peptides to K48-Ub2; settings: single-site fit, 25° C., pH 7.4
T3 construct: Ub and K48- and K63-linked diUb and tetraUb were made as described; made in house
Procedure: Fluorescence Anisotropy Binding Assays. Fluorescence anisotropy measurements were made using a Fluoromax 4 fluorometer in L format, thermostatted at 25° C. Excitation and emission monochromators were set at 492 nm and 520 nm, respectively. Slit widths were 3 nm for diUb-binding assays (1 mM fluorophore) or 6 nm for tetraUb-binding assays (0.1 mM fluorophore). Anisotropies were calculated by the instrument software, and the overall intensity of the fluorescence signal was monitored at each point with the polarizers oriented at the magic angle. All measurements were made in fluorescence buffer (25 mM Na phosphate [pH 7.4], 150 mM NaCl, 5 mM β-mercaptoethanol, 1 mM EDTA, and either 0.005% surfactant P20 (BIACORE) or 0.05% Brij35). Concentrations of the fluorescent proteins were calculated using the fluorescein extinction coefficient at 494 nm, 68000 M^-1 cm^-1. (poly)Ub concentrations were assessed by absorbance at 280 nm using the extinction coefficient 0.16 (mg/ml)^-1 cm^-1 ([…] and Raasi, 2005). Fluorescence anisotropy data were fit with a single-site binding model as described (Wilkinson, 2004).

K48-Ub4 [4] = assay: Fluorescence anisotropy binding of fluorescent tUIM peptides to K48-Ub4
Source text: (§3) Fluorescent Labeling. Rap80 tUIM peptides were fluorescently-labeled on the sulfhydryl group of C121 (see FIG. 1). For longer Rap80 constructs, all cysteines except C121 were mutated to serine for site-specific labeling. Ataxin-3 and Vps27 UIM peptides were labeled on a single cysteine introduced at the C-terminus. Fluorescein-5-maleimide (Pierce) was coupled to cysteines following the manufacturer's instructions. After desalting through Sephadex G-25 resin, fluorescein-labeled tUIM peptides were separated from unlabeled peptides by anion-exchange chromatography (MonoQ column, GE Biosciences) by elution with a NaCl gradient in 50 mM Tris buffer, pH 7.9. […] Fluorescence Anisotropy Binding Assays. Fluorescence anisotropy measurements were made using a Fluoromax 4 fluorometer in L format, thermostatted at 25° C. […] Anisotropies were calculated by the instrument software, and the overall intensity of the fluorescence signal was monitored at each point with the polarizers oriented at the magic angle. All measurements were made in fluorescence buffer (25 mM Na phosphate [pH 7.4], 150 mM NaCl, 5 mM β-mercaptoethanol, 1 mM EDTA, and either 0.005% surfactant P20 (BIACORE) or 0.05% Brij35). Concentrations of the fluorescent proteins were calculated using the fluorescein extinction coefficient at 494 nm, 68000 M^-1 cm^-1. […]

monoUb = target: T4, monoUb (Homo sapiens, UniProt P0CG47); assay: Fluorescence anisotropy binding of fluorescent UIM peptides to monoUb
T4 construct: Ub and K48- and K63-linked diUb and tetraUb were made as described; made in house
Source text: as §3

K63-Ub4 [5] = target: T1, K63-Ub4; assay: Fluorescence anisotropy binding of fluorescent tUIM peptides to K63-Ub4; settings: fluorescence anisotropy, single-site fit, 25° C., pH 7.4
Source text: as §3

[6] = single-site fit, 25° C., pH 7.4

Ddi1
difference in Kd for K63- and K48-Ub4 (K63-Ub4 [1]): < 2 fold
Kd (K48-Ub4 [2]): 50 µM

GST-fmm: functionally monomeric mixture: GST-His homodimers and GST-His/GST-Ede1 heterodimers at about 6:1 (GSATTPKSLAVEELSGMGFTEEEAHNALEKCNWDLEAATNFLLDSA; also: GST-His fusion, mixture of GST-His homodimers and GST-His/GST-Ede1 heterodimers at about 6:1)
Ub4 linkage preference by pull-down (K63-Ub4 and K48-Ub4; 125I-labeled K63-Ub4 versus K48-Ub4): no linkage preference

GST-UBA hHR23A UBA1: GST fusion of human hHR23A UBA1 domain; sequence in Table 3
K63-Ub4 affinity of the GST fusion tighter than the free domain (K63-Ub4 [3]): > 6 fold

ataxin-3 (WT): human ataxin-3 tandem UIM peptide, 2-residue linker DM
Kd (K63-Ub2; [6]): 91 µM
Kd (K48-Ub2): 100 µM
preference for K48-Ub4 over K63-Ub4 (K48-Ub4 [4]; fluorescence anisotropy Kd values, Table 2): 5 fold
Kd (K48-Ub4 [4]; fluorescence anisotropy, single-site fit, 25° C., pH 7.4): 3.3 µM

PSSHHHHHHSSGLVPRGSHMTEEEQFALALKMSEQEAEEEEELLRKAIAESLNSC(Fluorescein(5-Mal))RPS [Rap80 no linker]
Kd (K63-Ub2; [6]): 47 µM

PSSHHHHHHSSGLVPRGSHMTEEEQFALALKMSEQEAREVNSQEEEEEELLNSC(Fluorescein(5-Mal))RPS [UIM1]
Kd (K63-Ub2; text of Example 2): 230 µM
Kd (K48-Ub2): 280 µM
Kd (monoUb): 510 µM

GST-UBA Ede1: GST fusion of the yeast Ede1 UBA domain, dimeric; sequence in Table 3 (GSATTPKSLAVEELSGMGFTEEEAHNALEKCNWDLEAATNFLLDSA; also: GST fusion, dimeric)
preference for K63-Ub4 over K48-Ub4 by pull-down (K63-Ub4 and K48-Ub4; 125I-labeled Ub4 1 μM, bound counts, listed as GST-Ede1): 12 fold and > 11 fold
K63-Ub4 affinity of the GST fusion tighter than the free domain (K63-Ub4 [3]): 9 fold

PSSHHHHHHSSGLVPRGSHMTEEEQEQEAREVNSQEEEEEELLRKAIAESLNSC(Fluorescein(5-Mal))RPS [UIM2]
Kd (K63-Ub2; text of Example 2): 470 µM
Kd (K48-Ub2): 200 µM
Kd (monoUb): 520 µM

PSSHHHHHHSSGLVPRGSHMTEEEQFALALKMSEQEAAAEEEEELLRKAIAESLNSC(Fluorescein(5-Mal))RPS [Rap80 2A linker]
Kd (K63-Ub2; [6]): 110 µM
Kd (K48-Ub2): 180 µM
Kd (K63-Ub4 [5]): 19 µM

PSSHHHHHHSSGLVPRGSHMTEEEQFALALKMSEQEADMEEEEELLRKAIAESLNSC(Fluorescein(5-Mal))RPS [Rap80 ataxin linker]
Kd (K63-Ub2; [6]): 115 µM
Kd (K48-Ub2): 143 µM
Kd (K63-Ub4 [5]): 20 µM
